The values below are quoted from earlier work in patent publication US7834038B2, “Methods for preparing nonpeptidic oligomers from amino acids” (New York University, priority 2005, dated 2010).

SMILES strings stand for the structures. Entries after “also recorded” stand apart in the source; their conditions may differ.

This series deals with HIV-1 protease (Human immunodeficiency virus type 1 group M subtype B, UniProt P04585). Conditions: known inhibitors, statement in words.

For `CC(C)[C@H](NC(=O)OCc1ccccc1)C(=O)N[C@@H](Cc1ccccc1)[C@@H](O)[C@H](Cc1ccccc1)NC(=O)[C@H](NC(=O)OCc1ccccc1)C(C)C` [A-74704], the “inhibition of HIV-1 protease” value is on record as “very high affinities; also recorded: powerful inhibitor”.
`O=C(N[C@H]1c2ccccc2C[C@H]1O)[C@H](Cc1ccccc1)CC(O)C[C@@H](Cc1ccccc1)C(=O)N[C@H]1c2ccccc2C[C@H]1O` [L-700,417]: the “inhibition of HIV-1 protease” value is “very high affinities”.
